The values below are quoted from earlier work in article PMC9851200, “Multiparameter phenotypic screening for endogenous TFEB and TFE3 translocation identifies novel chemical series modulating lysosome function” (Autophagy, 2022).

Set-up in all cases: method as in original PKIS2 published data
Data set [1] deals with T1, kinases (KINOMEscan panel) (Homo sapiens, UniProt O14757).
T1 sequence (O14757 1-476): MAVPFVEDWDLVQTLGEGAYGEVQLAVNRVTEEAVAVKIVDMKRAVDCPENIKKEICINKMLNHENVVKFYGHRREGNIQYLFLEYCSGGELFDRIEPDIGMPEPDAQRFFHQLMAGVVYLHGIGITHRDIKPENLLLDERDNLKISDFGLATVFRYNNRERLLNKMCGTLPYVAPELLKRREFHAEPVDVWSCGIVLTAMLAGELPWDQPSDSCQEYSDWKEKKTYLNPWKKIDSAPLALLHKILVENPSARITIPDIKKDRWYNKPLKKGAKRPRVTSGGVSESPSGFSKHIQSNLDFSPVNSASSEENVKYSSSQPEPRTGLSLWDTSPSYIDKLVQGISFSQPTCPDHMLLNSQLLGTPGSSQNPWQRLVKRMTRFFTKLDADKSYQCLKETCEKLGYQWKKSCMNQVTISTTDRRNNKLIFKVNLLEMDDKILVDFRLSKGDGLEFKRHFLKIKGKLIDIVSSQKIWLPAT
Conditions: CHEK1; Published KINOMEscan; ref original PKIS2 published data; cited from earlier work.

The target in data set [2] is T2, kinases (KINOMEscan panel) (Homo sapiens, UniProt O14965).
T2 sequence (O14965 1-403): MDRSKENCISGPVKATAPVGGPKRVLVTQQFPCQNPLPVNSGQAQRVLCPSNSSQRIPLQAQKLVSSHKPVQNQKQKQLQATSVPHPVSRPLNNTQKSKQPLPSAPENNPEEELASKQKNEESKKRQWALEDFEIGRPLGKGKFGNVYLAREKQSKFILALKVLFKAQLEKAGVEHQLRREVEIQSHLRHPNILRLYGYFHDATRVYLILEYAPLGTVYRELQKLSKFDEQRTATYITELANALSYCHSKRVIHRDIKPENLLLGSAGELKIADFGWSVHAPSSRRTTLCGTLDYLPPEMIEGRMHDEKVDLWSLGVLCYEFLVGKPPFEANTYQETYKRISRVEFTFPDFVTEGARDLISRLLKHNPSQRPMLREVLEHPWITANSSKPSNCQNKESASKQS
The following applies: Published KINOMEscan; ref original PKIS2 published data; cited from earlier work.

Data set [3] deals with kinases (KINOMEscan panel) (Homo sapiens, UniProt P07333). Conditions: Published KINOMEscan; ref original PKIS2 published data; cited from earlier work.
Chain of kinases (KINOMEscan panel) (Homo sapiens, UniProt P07333) (P07333 20-972): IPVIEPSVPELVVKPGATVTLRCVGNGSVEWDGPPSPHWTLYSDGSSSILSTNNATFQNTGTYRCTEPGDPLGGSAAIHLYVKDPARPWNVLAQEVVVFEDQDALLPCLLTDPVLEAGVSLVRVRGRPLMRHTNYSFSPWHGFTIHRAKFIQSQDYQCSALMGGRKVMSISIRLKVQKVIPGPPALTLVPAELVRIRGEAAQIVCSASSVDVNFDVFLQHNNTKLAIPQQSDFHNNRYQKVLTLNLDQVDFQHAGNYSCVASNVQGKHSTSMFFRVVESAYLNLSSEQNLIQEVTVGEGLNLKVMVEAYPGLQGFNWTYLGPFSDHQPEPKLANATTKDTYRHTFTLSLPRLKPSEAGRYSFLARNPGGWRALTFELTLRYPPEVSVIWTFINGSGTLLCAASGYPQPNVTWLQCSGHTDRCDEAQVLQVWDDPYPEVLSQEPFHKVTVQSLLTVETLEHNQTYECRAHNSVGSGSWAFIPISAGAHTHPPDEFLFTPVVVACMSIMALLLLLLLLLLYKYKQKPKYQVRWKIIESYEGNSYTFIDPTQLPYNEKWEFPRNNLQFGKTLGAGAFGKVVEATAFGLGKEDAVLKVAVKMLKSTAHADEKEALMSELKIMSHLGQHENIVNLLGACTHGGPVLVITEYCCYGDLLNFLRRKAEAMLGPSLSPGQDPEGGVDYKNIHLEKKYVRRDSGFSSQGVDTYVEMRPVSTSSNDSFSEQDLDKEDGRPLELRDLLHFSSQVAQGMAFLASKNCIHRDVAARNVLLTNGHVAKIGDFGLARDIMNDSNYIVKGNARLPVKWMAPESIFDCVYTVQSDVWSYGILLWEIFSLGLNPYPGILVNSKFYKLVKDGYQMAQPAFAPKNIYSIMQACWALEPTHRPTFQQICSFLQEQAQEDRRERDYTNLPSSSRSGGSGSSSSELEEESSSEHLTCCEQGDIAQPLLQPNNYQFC
Data set [4] has as its target kinases (KINOMEscan panel) (Homo sapiens, UniProt P11309). The following applies: Published KINOMEscan; ref original PKIS2 published data; cited from earlier work.
The target in data set [5] is kinases (KINOMEscan panel) (Homo sapiens, UniProt P48736). The following applies: kinase PIK3CG; Published KINOMEscan; ref original PKIS2 published data; cited from earlier work.
Chain of kinases (KINOMEscan panel) (Homo sapiens, UniProt P48736) (P48736 whole entry): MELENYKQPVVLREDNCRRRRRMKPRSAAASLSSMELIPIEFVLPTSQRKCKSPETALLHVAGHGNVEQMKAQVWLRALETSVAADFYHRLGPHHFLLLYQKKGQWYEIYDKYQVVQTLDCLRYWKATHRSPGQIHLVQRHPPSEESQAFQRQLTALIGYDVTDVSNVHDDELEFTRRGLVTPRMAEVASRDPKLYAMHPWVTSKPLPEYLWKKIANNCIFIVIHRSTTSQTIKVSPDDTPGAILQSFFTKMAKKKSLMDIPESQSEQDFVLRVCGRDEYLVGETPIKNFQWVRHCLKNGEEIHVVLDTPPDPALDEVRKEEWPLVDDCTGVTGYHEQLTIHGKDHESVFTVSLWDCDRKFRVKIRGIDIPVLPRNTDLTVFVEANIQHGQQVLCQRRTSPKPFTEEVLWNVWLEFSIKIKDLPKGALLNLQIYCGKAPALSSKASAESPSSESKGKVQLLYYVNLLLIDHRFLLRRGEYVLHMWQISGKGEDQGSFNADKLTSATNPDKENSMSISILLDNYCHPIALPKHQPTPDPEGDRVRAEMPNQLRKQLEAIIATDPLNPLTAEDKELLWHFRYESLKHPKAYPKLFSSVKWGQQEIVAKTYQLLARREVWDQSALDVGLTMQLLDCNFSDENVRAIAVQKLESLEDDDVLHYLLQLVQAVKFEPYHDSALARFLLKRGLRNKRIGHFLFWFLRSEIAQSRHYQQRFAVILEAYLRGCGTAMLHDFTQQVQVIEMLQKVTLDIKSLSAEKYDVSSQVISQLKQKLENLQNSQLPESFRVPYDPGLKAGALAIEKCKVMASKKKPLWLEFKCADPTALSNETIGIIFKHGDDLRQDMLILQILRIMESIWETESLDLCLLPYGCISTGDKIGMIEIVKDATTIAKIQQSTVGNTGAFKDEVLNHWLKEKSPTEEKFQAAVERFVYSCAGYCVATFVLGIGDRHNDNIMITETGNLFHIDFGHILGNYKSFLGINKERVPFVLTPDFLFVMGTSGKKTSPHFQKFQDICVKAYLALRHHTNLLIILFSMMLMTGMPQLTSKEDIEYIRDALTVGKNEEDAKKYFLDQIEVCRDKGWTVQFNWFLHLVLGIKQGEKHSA
Data set [6] addresses kinases (KINOMEscan panel) (Homo sapiens, UniProt Q8NI60). Conditions: COQ8A; Published KINOMEscan; ref original PKIS2 published data; cited from earlier work.
Data set [7] concerns the target kinases (KINOMEscan panel) (Homo sapiens, UniProt Q9BYT3). Conditions: kinase STK33; Published KINOMEscan; ref original PKIS2 published data; cited from earlier work.
Data set [8] deals with T3, kinases (KINOMEscan panel) (Homo sapiens, UniProt Q9C098).
T3 sequence (Q9C098 1-648): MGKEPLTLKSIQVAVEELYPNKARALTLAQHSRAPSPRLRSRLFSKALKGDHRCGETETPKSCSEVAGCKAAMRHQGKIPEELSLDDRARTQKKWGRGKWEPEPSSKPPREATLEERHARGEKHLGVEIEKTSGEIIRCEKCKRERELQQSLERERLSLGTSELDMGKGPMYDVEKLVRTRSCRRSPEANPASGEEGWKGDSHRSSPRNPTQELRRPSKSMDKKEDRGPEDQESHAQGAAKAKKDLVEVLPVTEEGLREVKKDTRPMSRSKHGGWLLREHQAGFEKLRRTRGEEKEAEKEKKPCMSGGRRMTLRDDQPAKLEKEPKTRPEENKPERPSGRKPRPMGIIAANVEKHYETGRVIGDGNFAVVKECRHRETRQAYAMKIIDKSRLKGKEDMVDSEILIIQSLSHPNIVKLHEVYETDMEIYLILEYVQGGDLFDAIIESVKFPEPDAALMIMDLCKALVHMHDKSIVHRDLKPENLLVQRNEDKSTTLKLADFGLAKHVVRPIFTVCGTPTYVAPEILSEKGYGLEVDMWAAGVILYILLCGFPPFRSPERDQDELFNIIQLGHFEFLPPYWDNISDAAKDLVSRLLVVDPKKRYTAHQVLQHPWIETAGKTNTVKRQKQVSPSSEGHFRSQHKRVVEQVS
Conditions: kinase DCLK3; Published KINOMEscan; ref original PKIS2 published data; cited from earlier work.

Chain of kinases (KINOMEscan panel) (Homo sapiens, UniProt Q9BYT3) (Q9BYT3 whole entry): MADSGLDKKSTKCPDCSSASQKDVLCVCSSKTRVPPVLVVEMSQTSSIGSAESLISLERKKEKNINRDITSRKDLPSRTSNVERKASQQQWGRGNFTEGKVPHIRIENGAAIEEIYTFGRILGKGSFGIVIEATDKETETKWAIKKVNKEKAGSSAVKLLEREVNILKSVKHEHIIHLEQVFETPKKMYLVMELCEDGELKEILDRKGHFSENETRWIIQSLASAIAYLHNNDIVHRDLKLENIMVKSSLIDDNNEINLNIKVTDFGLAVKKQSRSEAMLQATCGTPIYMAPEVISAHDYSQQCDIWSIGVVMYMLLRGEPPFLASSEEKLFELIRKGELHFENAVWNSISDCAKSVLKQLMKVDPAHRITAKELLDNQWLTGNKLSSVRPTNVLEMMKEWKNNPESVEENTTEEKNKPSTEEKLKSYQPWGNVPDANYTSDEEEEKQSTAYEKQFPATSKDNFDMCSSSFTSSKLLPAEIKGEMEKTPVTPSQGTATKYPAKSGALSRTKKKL
Chain of kinases (KINOMEscan panel) (Homo sapiens, UniProt P11309) (P11309 whole entry): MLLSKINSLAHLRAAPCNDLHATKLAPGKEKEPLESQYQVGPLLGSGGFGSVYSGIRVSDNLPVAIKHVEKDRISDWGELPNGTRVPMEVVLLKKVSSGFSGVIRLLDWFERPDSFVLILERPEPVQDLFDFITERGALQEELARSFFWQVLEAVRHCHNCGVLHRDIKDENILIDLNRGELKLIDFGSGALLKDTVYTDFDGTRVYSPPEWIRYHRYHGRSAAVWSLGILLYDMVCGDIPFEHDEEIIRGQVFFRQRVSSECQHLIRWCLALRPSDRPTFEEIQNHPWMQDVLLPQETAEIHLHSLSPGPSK
Chain of kinases (KINOMEscan panel) (Homo sapiens, UniProt Q8NI60) (Q8NI60 163-647): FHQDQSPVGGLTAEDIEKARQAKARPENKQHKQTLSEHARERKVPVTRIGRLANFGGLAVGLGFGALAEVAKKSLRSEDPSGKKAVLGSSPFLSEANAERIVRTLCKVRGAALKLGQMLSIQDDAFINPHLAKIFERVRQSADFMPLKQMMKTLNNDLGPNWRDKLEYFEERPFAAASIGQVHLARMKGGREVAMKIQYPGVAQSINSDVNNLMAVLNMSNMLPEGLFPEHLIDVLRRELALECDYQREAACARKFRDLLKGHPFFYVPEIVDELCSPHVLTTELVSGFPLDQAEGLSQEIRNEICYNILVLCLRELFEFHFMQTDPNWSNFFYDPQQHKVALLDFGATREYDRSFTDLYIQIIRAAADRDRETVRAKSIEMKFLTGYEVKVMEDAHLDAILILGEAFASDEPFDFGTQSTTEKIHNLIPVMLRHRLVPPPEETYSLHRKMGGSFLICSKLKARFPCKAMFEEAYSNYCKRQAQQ

With `Cc1cccc(-c2nc(Nc3ccncc3)c3ccccc3n2)n1` [NK215], the “KINOMEscan CHEK1” value in data set [1] was 0. The “KINOMEscan AURKA” value in data set [2] is recorded as 0. Besides, in data set [3], the “KINOMEscan CSF1R” value was 0 and the “KINOMEscan CSF1R-autoinhibited” value is on record as 0. In addition, in data set [4], the “KINOMEscan PIM1” value is 0. The “KINOMEscan PIK3CG” value in data set [5] is 0. Moreover, the “KINOMEscan COQ8A” value in data set [6] is 27. The “KINOMEscan STK33” value in data set [7] was 2. The “KINOMEscan DCLK3” value in data set [8] is listed as 21.
